Measured values taken from ChEMBL document CHEMBL4196030, “Enediynes bearing polyfluoroaryl sulfoxide as new antiproliferative agents with dual targeting of microtubules and DNA” (Eur J Med Chem, 2018).
Each block holds one compound with its values, some of them ahead of it. Calls of active or inactive are those of the source. The calls are words filed in the database; no cut-off is given here.

What was measured:
MIA PaCa-2 [1] = test: Antiproliferative activity against human MIAPaCa2 cells after 70 hrs by alamar blue assay; type: functional, cell-based; settings: MIA PaCa-2, 70 h
MIA PaCa-2 [2] = test: Antiproliferative activity against human MIAPaCa2 cells preincubated for 4 hrs followed by 0.6 J/cm2 light irradiation for 10 mins and measured after 70 hrs by alamar blue assay; type: functional, cell-based; settings: MIA PaCa-2, light or radiation study
[3] = Selectivity ratio of IC50 for antiproliferative activity against human MIAPaCa2 cells under dark condition to IC50 for antiproliferative activity against human MIAPaCa2 cells under 0.6 J/cm2 light irradiation; type: functional, MIA PaCa-2
A-431 [4] = test: Antiproliferative activity against human A431 cells after 70 hrs by alamar blue assay; type: functional, cell-based; settings: A-431, 70 h
Homo sapiens = organism: Homo sapiens; test: Disruption of microtubule network in human MIAPaCa2 cells at 5 times antiproliferative IC50 after 1 to 12 hrs by immunofluorescence assay; type: cell-based
[5] = Antiproliferative activity against human GERL3.0 cells preincubated for 4 hrs followed by 0.6 J/cm2 light irradiation for 10 mins and measured after 70 hrs by alamar blue assay; type: functional, cell-based; settings: light or radiation study
A498 [6] = test: Disruption of microtubule network in human A498 cells at 5 times antiproliferative IC50 after 1 to 12 hrs by immunofluorescence assay; type: cell-based
MIA PaCa-2 [7] = test: Cytotoxicity against human MIAPaCa2 cells assessed as reduction in cell viability after 70 hrs by alamar blue assay; type: cell-based; settings: MIA PaCa-2, 70 h
MDA-MB-231 [8] = test: Antiproliferative activity against human MDA-MB-231 cells preincubated for 4 hrs followed by 0.6 J/cm2 light irradiation for 10 mins and measured after 70 hrs by alamar blue assay; type: functional, cell-based; settings: MDA-MB-231, light or radiation study
[9] = Antiproliferative activity against human GERL3.0 cells after 70 hrs by alamar blue assay; type: functional, cell-based
[10] = Selectivity ratio of IC50 for antiproliferative activity against human MDA-MB-231 cells under dark condition to IC50 for antiproliferative activity against human MDA-MB-231 cells under 0.6 J/cm2 light irradiation; type: functional
[11] = Selectivity ratio of IC50 for antiproliferative activity against human A549 cells under dark condition to IC50 for antiproliferative activity against human A549 cells under 0.6 J/cm2 light irradiation; type: functional
A498 [12] = test: Antiproliferative activity against human A498 cells after 70 hrs by alamar blue assay; type: functional, cell-based; settings: A498, 70 h
MIA PaCa-2 [13] = test: Potency index, ratio of 5-fluorouracil IC50 to compound IC50 for antiproliferative activity against human MIAPaCa2 cells; type: functional
BEAS-2B [14] = test: Cytotoxicity against human BEAS2B cells assessed as reduction in cell viability after 70 hrs by alamar blue assay; type: cell-based
HUVEC [15] = test: Antiproliferative activity against HUVEC after 70 hrs by alamar blue assay; type: cell-based; settings: Homo sapiens
MOLT-4 [16] = test: Antiproliferative activity against human MOLT4 cells after 70 hrs by alamar blue assay; type: functional, cell-based; settings: MOLT-4, 70 h
[17] = Selectivity ratio of IC50 for antiproliferative activity against human PC3 cells under dark condition to IC50 for antiproliferative activity against human PC3 cells under 0.6 J/cm2 light irradiation; type: functional, PC-3
Caco-2 [18] = test: Antiproliferative activity against human Caco2 cells preincubated for 4 hrs followed by 0.6 J/cm2 light irradiation for 10 mins and measured after 70 hrs by alamar blue assay; type: functional, cell-based; settings: Caco-2, light or radiation study
PC-3 [19] = test: Antiproliferative activity against human PC3 cells after 70 hrs by alamar blue assay; type: functional, cell-based; settings: PC-3, 70 h
A549 [20] = test: Antiproliferative activity against human A549 cells preincubated for 4 hrs followed by 0.6 J/cm2 light irradiation for 10 mins and measured after 70 hrs by alamar blue assay; type: functional, cell-based; settings: A549, light or radiation study
HBL-100 [21] = test: Antiproliferative activity against human HBL100 cells after 70 hrs by alamar blue assay; type: cell-based; settings: HBL-100, 70 h
[22] = Selectivity ratio of IC50 for antiproliferative activity against human MOLT4 cells under dark condition to IC50 for antiproliferative activity against human MOLT4 cells under 0.6 J/cm2 light irradiation; type: functional, MOLT-4
[23] = Selectivity ratio of IC50 for antiproliferative activity against human GERL3.0 cells under dark condition to IC50 for antiproliferative activity against human GERL3.0 cells under 0.6 J/cm2 light irradiation; type: functional
[24] = Selectivity ratio of IC50 for antiproliferative activity against human Caco2 cells under dark condition to IC50 for antiproliferative activity against human Caco2 cells under 0.6 J/cm2 light irradiation; type: functional, Caco-2
MOLT-4 [25] = test: Antiproliferative activity against human MOLT4 cells preincubated for 4 hrs followed by 0.6 J/cm2 light irradiation for 10 mins and measured after 70 hrs by alamar blue assay; type: functional, cell-based; settings: MOLT-4, light or radiation study
A549 [26] = test: Antiproliferative activity against human A549 cells after 70 hrs by alamar blue assay; type: functional, cell-based; settings: A549, 70 h
[27] = Selectivity ratio of IC50 for antiproliferative activity against human A431 cells under dark condition to IC50 for antiproliferative activity against human A431 cells under 0.6 J/cm2 light irradiation; type: functional, A-431
HBL-100 [28] = test: Cytotoxicity against human HBL100 cells assessed as reduction in cell viability after 70 hrs by alamar blue assay; type: cell-based; settings: HBL-100, 70 h
A549 [29] = test: Disruption of microtubule network in human A549 cells at 5 times antiproliferative IC50 after 1 to 12 hrs by immunofluorescence assay; type: cell-based
BEAS-2B [30] = test: Antiproliferative activity against human BEAS2B cells after 70 hrs by alamar blue assay; type: cell-based
PC-3 [31] = test: Antiproliferative activity against human PC3 cells preincubated for 4 hrs followed by 0.6 J/cm2 light irradiation for 10 mins and measured after 70 hrs by alamar blue assay; type: functional, cell-based; settings: PC-3, light or radiation study
[32] = Selectivity ratio of IC50 for antiproliferative activity against human A498 cells under dark condition to IC50 for antiproliferative activity against human A498 cells under 0.6 J/cm2 light irradiation; type: functional
A-431 [33] = test: Antiproliferative activity against human A431 cells preincubated for 4 hrs followed by 0.6 J/cm2 light irradiation for 10 mins and measured after 70 hrs by alamar blue assay; type: functional, cell-based; settings: A-431, light or radiation study
Caco-2 [34] = test: Antiproliferative activity against human Caco2 cells after 70 hrs by alamar blue assay; type: functional, cell-based; settings: Caco-2, 70 h
[35] = Ratio of IC50 for antiproliferative activity against human HBL100 cells to IC50 for cytotoxicity against human HBL100 cells; type: cell-based, HBL-100; settings: read-out: Ratio IC50
[36] = Ratio of IC50 for antiproliferative activity against human MIAPaCa2 cells to IC50 for cytotoxicity against human MIAPaCa2 cells; parameters: species or system MIA PaCa-2
A498 [37] = test: Antiproliferative activity against human A498 cells preincubated for 4 hrs followed by 0.6 J/cm2 light irradiation for 10 mins and measured after 70 hrs by alamar blue assay; type: functional, cell-based; settings: A498, light or radiation study
[38] = Ratio of IC50 for antiproliferative activity against human BEAS2B cells to IC50 for cytotoxicity against human BEAS2B cells; type: cell-based, BEAS-2B; settings: read-out: Ratio IC50
[39] = Induction of supercoiled plasmid complementary DNA3 cleavage at 100 uM after 1 hr by gel electrophoresis method
MDA-MB-231 [40] = test: Antiproliferative activity against human MDA-MB-231 cells after 70 hrs by alamar blue assay; type: functional, cell-based; settings: MDA-MB-231, 70 h
HUVEC [41] = test: Cytotoxicity against HUVEC assessed as reduction in cell viability after 70 hrs by alamar blue assay; type: cell-based; settings: Homo sapiens
[42] = Induction of supercoiled plasmid complementary DNA3 cleavage at 100 uM after 1 hr under LED light irradiation by gel electrophoresis method
K562 = test: Antiproliferative activity against human K562 cells after 70 hrs by alamar blue assay; type: functional, cell-based; settings: K562, 70 h

IC50 (MIA PaCa-2 [1]): 3000 nM | IC50 (MIA PaCa-2 [2]): 500 nM
Structure (SMILES): CCCCC(=O)OCC#Cc1ncccc1C#CC[S+]([O-])c1c(F)c(F)c(F)c(F)c1F (stereo not given)
Ratio IC50 [3]: 6

IC50 (A-431 [4]): 1500 nM | IC50 (MDA-MB-231 [8]): 500 nM | IC50 (MIA PaCa-2 [1]): 800 nM | IC50 (MOLT-4 [16]): 600 nM | IC50 (Caco-2 [18]): 500 nM | IC50 (MIA PaCa-2 [2]): 200 nM | IC50 (PC-3 [19]): 1400 nM | IC50 (A549 [20]): 800 nM | IC50 (MOLT-4 [25]): 400 nM | IC50 (A549 [26]): 1600 nM | IC50 (PC-3 [31]): 500 nM | IC50 (A-431 [33]): 1100 nM | IC50 (Caco-2 [34]): 1000 nM | Activity [39]: inactive | IC50 (MDA-MB-231 [40]): 1200 nM | Activity [42]: Active | IC50 (K562): 700 nM
Structure (SMILES): [O-][S+](CC#Cc1cccnc1C#CCO)c1c(F)c(F)c(F)c(F)c1F (stereo not given)
Activity (Homo sapiens): Active | IC50 [5]: 600 nM | Activity (A498 [6]): Active | IC50 (MIA PaCa-2 [7]): 20500 nM | IC50 [9]: 900 nM | Ratio IC50 [10]: 2.2 | Ratio IC50 [11]: 2 | IC50 (A498 [12]): 3400 nM | Ratio IC50 (MIA PaCa-2 [13]): 6 | IC50 (BEAS-2B [14]): 19600 nM | IC50 (HUVEC [15]): 600 nM | Ratio IC50 [17]: 2.5 | IC50 (HBL-100 [21]): 1400 nM | Ratio IC50 [22]: 1.6 | Ratio IC50 [23]: 1.4 | Ratio IC50 [24]: 2 | Ratio IC50 [27]: 1.3 | IC50 (HBL-100 [28]): 27100 nM | Activity (A549 [29]): Active | Ratio IC50 [3]: 3.7 | IC50 (BEAS-2B [30]): 1000 nM | Ratio IC50 [32]: 1.1 | selectivity ratio [35]: 19.3 | Ratio IC50 [36]: 25.3 | IC50 (A498 [37]): 3200 nM | selectivity ratio [38]: 18.6 | IC50 (HUVEC [41]): 8800 nM

IC50 (MIA PaCa-2 [1]): 120 nM
Structure (SMILES): Nc1ccn([C@@H]2O[C@H](CO)[C@@H](O)C2(F)F)c(=O)n1 [GEMCITABINE]

IC50 (MIA PaCa-2 [1]): 1000 nM
Structure (SMILES): [O-][S+](CC#Cc1cccnc1C#CCOC1CCCCO1)c1c(F)c(F)c(F)c(F)c1F (stereo not given)

The next lines start with the compound.

Structure (SMILES): [O-][S+](CC#Cc1ccccc1C#CCO)c1ccccc1 (stereo not given)
Activity (Homo sapiens): inactive | Activity (A498 [6]): inactive | IC50 (MIA PaCa-2 [7]): 124000 nM | IC50 (MIA PaCa-2 [1]): 15900 nM | IC50 (BEAS-2B [14]): 81900 nM | IC50 (HUVEC [15]): 79800 nM | IC50 (HBL-100 [21]): 19000 nM | IC50 (HBL-100 [28]): 35400 nM | Activity (A549 [29]): inactive | IC50 (BEAS-2B [30]): 29500 nM | selectivity ratio [35]: 1.8 | Ratio IC50 [36]: 7.8 | selectivity ratio [38]: 2.8 | IC50 (HUVEC [41]): 66200 nM

Structure (SMILES): [O-][S+](CC#Cc1ccccc1)c1c(F)c(F)c(F)c(F)c1F (stereo not given)
IC50 (MIA PaCa-2 [1]): 7800 nM

Structure (SMILES): COc1cccc2c1C(=O)c1c(O)c3c(c(O)c1C2=O)C[C@@](O)(C(=O)CO)C[C@@H]3O[C@H]1C[C@H](N)[C@H](O)[C@H](C)O1 [DOXORUBICIN]
IC50 (MIA PaCa-2 [7]): 3100 nM | IC50 (BEAS-2B [14]): 18600 nM | IC50 (HUVEC [15]): 150 nM | IC50 (HBL-100 [21]): 80 nM | IC50 (HBL-100 [28]): 8500 nM | IC50 (BEAS-2B [30]): 2400 nM | IC50 (HUVEC [41]): 480 nM

Structure (SMILES): COCCOCOCC#Cc1ncccc1C#CC[S+]([O-])c1c(F)c(F)c(F)c(F)c1F (stereo not given)
IC50 (MIA PaCa-2 [1]): 800 nM

Structure (SMILES): [O-][S+](CC#Cc1cc2ccccc2cc1C#CCO)c1c(F)c(F)c(F)c(F)c1F (stereo not given)
Activity (Homo sapiens): Active | IC50 (MIA PaCa-2 [1]): 4700 nM | Activity (A549 [29]): Active
